# Measurements: a melting point compilation (Tetko et al.; mined from patent text by program, amines drawn as free bases though some values may be those of a salt)
row,Structure (SMILES),melting point
1,Cn1cc([N+](=O)[O-])nc1CBr,130 to 132 °C
2,N#Cc1nc(Cl)nc(N2CCS(=O)(=O)CC2)c1Cl,198 to 199 °C
3,COc1ccc(C2Sc3cc(Cl)c(Cl)cc3N(CCN(C)C)C(=O)C2O)cc1 (stereo not given),178 to 180 °C
4,COc1ccccc1COC(=O)C(O)CNCCc1ccc(OC)c(OC)c1 (stereo not given),79.5 to 82.5 °C
5,CCOc1cc2ncc(C#N)c(Nc3ccc(F)c(Cl)c3)c2cc1OCC,194 to 198 °C
6,Cn1cc(-c2cccc(Cl)c2)c(=O)c(-c2ccc(Cl)c(Cl)c2)c1,107 to 110 °C
7,CC(C)(C)c1cc(-c2nn(C(=O)c3cccs3)c3ncccc23)cc(C(C)(C)C)c1O,240 to 242 °C
8,N#Cc1cc(Cl)ccc1Oc1cc(Br)c(F)cc1O,208 to 210 °C
9,CC(C)(C)OC(=O)Nc1cnc(Cl)cc1C(=O)O,250 °C
10,Oc1ccc(NC2CCc3cc(O)ccc3C2)cc1 (stereo not given),193 to 195 °C
11,Cc1csc(C2=NOCCO2)c1S(N)(=O)=O,155 °C
12,OC1c2ccccc2-c2nc(-c3ccc(Cl)cc3Cl)ncc21 (stereo not given),188 °C
13,COC(=O)C1=C(C)NC(C)=C(C(=O)OCCN)C1c1cccc(Cl)c1Cl (stereo not given),166 to 167 °C
14,COc1ccc(-c2ncnc(-c3ccc(C(F)(F)F)cc3F)c2N)c(O)c1,100 to 103 °C
15,COC(=O)c1ccc(NCCCCCCCCCCCCCCCCBr)cc1,92 to 93 °C
16,Cc1nc2c(N)nc3c(c2n1CC(C)(C)O)CCCC3,290 to 292 °C
17,COC(=O)C[C@H]1[C@@H](C(C)=O)C(=O)N1C(c1ccccc1)(c1ccccc1)c1ccccc1,52 to 54 °C
18,CSC1=Nc2ccc(Cl)cc2Nc2cscc21,152 to 154 °C
19,CNC(=O)c1cc(-c2ccc(OC)cc2)nn(CC2CCCC2)c1=O,107 to 108 °C
20,COC(=O)CCCc1cc2cc(Cl)ccc2n1S(=O)(=O)c1ccc2c(ccn2C(C)=O)c1,127 to 131 °C
21,Cn1cncc1C(O)(c1ccc(Cl)cc1)c1ccc2c(c1)c(CCc1ccc(Cl)s1)cc(=O)n2C (stereo not given),128 °C
22,CCCCc1c(C(=O)c2cccnc2)c2ccccc2n1C,89 to 90 °C
23,CC1CN=C(c2cccs2)NO1 (stereo not given),70 to 72 °C
24,CC(=O)Nc1ccc(C#CCCN2CC=C(c3ccccc3)CC2)nc1,158 to 160 °C
25,O=Cc1ccc(C=Cc2ccc(C=O)cc2)cc1,169 °C
26,CC(CS)C(=O)N1C(C(=O)O)CC2CCCCC21 (stereo not given),141 to 142 °C
27,Nc1nc(O)c2c(n1)NC[C@H](CCc1ccc(Br)cc1)C2,275 to 283 °C
28,CCOC(Nc1ccccc1)(OCC)c1ccnc(C(=O)c2ccccc2)c1,114 to 115 °C

# More lines, now with the values ahead:
row,melting point,Structure (SMILES)
1,120 to 124 °C,CC(CCC(=O)O)c1ccc2c(c1)C(=O)c1ccccc1CO2 (stereo not given)
2,95 to 96 °C,CC(=O)c1ccc(NS(C)(=O)=O)c(Oc2ccc(F)cc2)c1
3,231 to 234 °C,CC(=O)Nc1ccc(CSc2nc3cnccc3[nH]2)cc1
4,195 to 196 °C,CCOC(=O)c1nc2scc(COCc3ccc(F)cc3)c2c(=O)[nH]1
5,289 to 293 °C,O=c1[nH]c2ccc(Cl)cc2c(=O)c2ccccc12
6,54 to 59 °C,O=[N+]([O-])c1ccc(CN2CCN(CC(O)COc3cccc4[nH]c5ccccc5c34)CC2)o1 (stereo not given)
7,194 to 196 °C,CN(C)c1ccc(CNC(=O)[C@@H](Cc2ccccc2)NC(=O)CCC(=O)O)cc1
8,> 250 °C,CS(=O)(=O)c1ccc(-c2cnn(Cc3ccccc3)c(=O)c2-c2ccc3c(c2)COC3=O)cc1
9,88 °C,CCOC(=O)CCCCC(=O)OC[C@@H]1CC(c2ccc(-c3ccc(N4C[C@H](Cn5ccnn5)OC4=O)cc3F)cn2)=NO1
10,120 to 121 °C,Cc1oc(-c2ccccc2)nc1COc1ccc(CCCCCC2OC(=O)NC2=O)cc1 (stereo not given)
11,106 to 107 °C,c1ccc(-c2ccc3nc(COc4ccc(CCCn5ccnc5)cc4)cn3c2)cc1
12,213 to 215 °C,CN(C)S(=O)(=O)Nc1ccc(C(=O)Nc2ccccc2)cc1
